Test results from PubChem BioAssay (NCI).
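Protocol summary: plate cells (96-well), add compound at 5 concentrations, incubate 48 h, interpolate endpoints linearly. The concentration for full growth arrest is given as TGI.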

Tests used:
Assay in all cases: NCI tumour cell line growth inhibition, 48 h
NCI-H460 lung = test system: NCI-H460 lung
HOP-62 NSCLC = test system: HOP-62 NSCLC
A549 NSCLC = test system: A549 NSCLC
K-562 leukemia = test system: K-562 leukemia
U251 CNS = test system: U251 CNS
NCI-H226 lung = test system: NCI-H226 lung
LOX IMVI melanoma = test system: LOX IMVI melanoma
KM12 colon = test system: KM12 colon
HT29 colon = test system: HT29 colon
SK-OV-3 ovarian = test system: SK-OV-3 ovarian
HCT-116 colon = test system: HCT-116 colon
EKVX NSCLC = test system: EKVX NSCLC
SK-MEL-28 melanoma = test system: SK-MEL-28 melanoma
TK-10 renal = test system: TK-10 renal
UACC-62 melanoma = test system: UACC-62 melanoma
MDA-MB-435 = test system: MDA-MB-435
MCF7 breast = test system: MCF7 breast
MDA-MB-231 breast = test system: MDA-MB-231 breast
BT-549 breast = test system: BT-549 breast
MDA-N = test system: MDA-N

SMILES	TGI (NCI-H460 lung)	TGI (HOP-62 NSCLC)	TGI (A549 NSCLC)	TGI (K-562 leukemia)	TGI (U251 CNS)	TGI (NCI-H226 lung)	TGI (LOX IMVI melanoma)	TGI (KM12 colon)	TGI (HT29 colon)	TGI (SK-OV-3 ovarian)	TGI (HCT-116 colon)	TGI (EKVX NSCLC)	TGI (SK-MEL-28 melanoma)	TGI (TK-10 renal)	TGI (UACC-62 melanoma)	TGI (MDA-MB-435)	TGI (MCF7 breast)	TGI (MDA-MB-231 breast)	TGI (BT-549 breast)	TGI (MDA-N)
Cn1cc2ccccc2c1-c1nc(F)nc(F)n1	> 100 µM	> 100 µM	> 100 µM	> 100 µM	> 100 µM	> 100 µM	> 100 µM	> 100 µM	> 100 µM	> 100 µM	> 100 µM	> 100 µM	> 100 µM	> 100 µM						
O=C(CSc1nnc(-c2ccc(N=Cc3ccc(Cl)cc3)cc2)o1)Nc1ccccc1[N+](=O)[O-]	> 100 µM	> 100 µM	> 100 µM	> 100 µM	> 100 µM	> 100 µM	> 100 µM	> 100 µM	> 100 µM	> 100 µM	> 100 µM	> 100 µM	> 100 µM	> 100 µM	> 100 µM					
C1=NCCN2CCN(CCN=Cc3ccc(cc3)OCc3cccc(n3)COc3ccc1cc3)CC2	> 50 µM	> 50 µM	> 50 µM	> 50 µM	> 50 µM	> 50 µM		> 50 µM	> 50 µM	> 50 µM	> 50 µM	> 50 µM	> 50 µM	> 50 µM	> 50 µM	> 50 µM	> 50 µM	> 50 µM	> 50 µM	
COC(=O)[C@@H]1CN(C(C)=O)C(=O)N1	> 100 µM	> 100 µM	> 100 µM	> 100 µM	> 100 µM	> 100 µM	> 100 µM	> 100 µM	> 100 µM	> 100 µM	> 100 µM	> 100 µM	> 100 µM	> 100 µM	> 100 µM	> 100 µM		> 100 µM		> 100 µM
C=Cc1ccc(C)[n+](C[Si](C)(C)O[Si](C)(C)C)c1		> 100 µM	> 100 µM	> 100 µM	> 100 µM	> 100 µM	> 100 µM	> 100 µM	> 100 µM	> 100 µM	> 100 µM	> 100 µM	> 100 µM		> 100 µM					
O=C1/C(=C/c2cccc(F)c2)CCCc2ccccc21	31.1 µM	27.4 µM	38.2 µM	32.1 µM	29.7 µM	27.7 µM	30.1 µM	24.4 µM	25.9 µM	68.2 µM	29 µM	28.6 µM	30.2 µM	29.1 µM	28.6 µM	29.7 µM	30.5 µM	32.5 µM	34.1 µM	
COc1ccc2c3c1O[C@]1(C)C34CCN(C)C(C2)C42C=C[C@@]1(OC)c1c(O)ccc(O)c12	> 100 µM	> 100 µM	> 100 µM	> 100 µM	> 100 µM		> 100 µM	> 100 µM	> 100 µM	> 100 µM	> 100 µM	> 100 µM	> 100 µM	> 100 µM						
NC1=C(NC(=O)Cc2ccc(F)cc2)C(=O)c2ccccc2C1=O	> 100 µM	> 87.6 µM	> 100 µM	> 100 µM	46.8 µM	> 100 µM	31.4 µM	> 100 µM	> 100 µM	56.1 µM	> 91.1 µM	> 100 µM	> 100 µM	59 µM	> 100 µM					
CNS(=O)(=O)NN(C)S(=O)(=O)c1ccccc1	> 100 µM	> 100 µM	> 100 µM	> 100 µM	> 100 µM	> 100 µM	> 100 µM	> 100 µM	> 100 µM		> 100 µM	> 100 µM		> 100 µM	> 100 µM					
CCOC(CN(C)C(=O)Nc1cccc2ccccc12)OCC	> 10 µM	> 10 µM	> 10 µM	> 10 µM	> 10 µM	> 10 µM	> 10 µM	> 10 µM	> 10 µM	> 10 µM	> 10 µM	> 10 µM	> 10 µM	> 10 µM	> 10 µM	> 10 µM	> 10 µM	> 10 µM		> 10 µM
NC(=O)N/N=C(\CC1OC(=O)c2ccccc21)c1ccco1 (stereo unspecified)	> 100 µM		> 100 µM	> 100 µM		> 100 µM	> 100 µM	> 100 µM	> 100 µM	> 100 µM	> 100 µM	> 100 µM	> 100 µM	> 100 µM	> 100 µM					
C[C@]12CCC(=O)C=C1CC[C@@H]1[C@@H]2CC[C@]2(C)C(=O)NC(=O)C[C@@H]12	> 100 µM	> 100 µM	> 100 µM	> 100 µM	> 100 µM	> 100 µM	> 100 µM	> 100 µM	> 100 µM	> 100 µM	> 100 µM	> 100 µM	> 100 µM	> 100 µM	> 100 µM					
COc1cc2c(oc(=O)c3c4oc([Si](C)(C)C)cc4cc(OC)c23)c2cccc(OCc3ccccc3)c12	> 100 µM	47.6 µM	> 100 µM	> 100 µM		> 94.4 µM	> 100 µM	> 100 µM	> 100 µM	> 73.2 µM	> 100 µM	> 100 µM	> 85.9 µM	> 66.8 µM	37.6 µM					
COC(=O)N/N=C(\Cc1ccccc1)CN(C)C	> 100 µM	> 100 µM	> 100 µM	> 100 µM	> 100 µM		> 100 µM	> 100 µM	> 100 µM	> 100 µM	> 100 µM	> 100 µM	> 100 µM	> 100 µM	> 100 µM					
CCCCOC(=O)C1C2CCC(O2)C1C(=O)OCCCC (stereo unspecified)	> 47.1 µM	> 100 µM	> 100 µM	> 100 µM	> 100 µM	> 100 µM	> 60.7 µM	> 100 µM	> 64.2 µM	> 100 µM	> 65.1 µM	> 100 µM	> 100 µM	> 100 µM	> 100 µM					
COc1cc(O)c2c(=O)cc(-c3ccc(O)cc3O)oc2c1CC=C(C)C	27.7 µM		29.7 µM	> 100 µM	38.2 µM	38 µM	28.3 µM	21.5 µM	16.3 µM		32.4 µM	73.6 µM	> 100 µM	74.3 µM	39.3 µM	> 100 µM	75.7 µM	54.1 µM		61.5 µM
O=C(ON=C1c2ccccc2C(Br)C(Br)c2ccccc21)c1cc([N+](=O)[O-])cc([N+](=O)[O-])c1 (stereo unspecified)	38.2 µM	34.3 µM	75.7 µM	45.3 µM	30.2 µM	48.6 µM	28.8 µM	37.4 µM	37.7 µM	66.8 µM	32.5 µM	59.8 µM	34.6 µM	45.8 µM	38.5 µM	35.3 µM	48 µM	35.6 µM		48.8 µM
COc1ccc(Nc2nnc(-c3nsc4ccccc34)s2)cc1	> 65.9 µM	36.1 µM	> 100 µM	> 100 µM	> 100 µM	> 100 µM	> 100 µM	> 100 µM	> 100 µM	19 µM	45.2 µM	> 100 µM	> 100 µM	> 88.5 µM	> 100 µM	> 100 µM	> 100 µM	> 100 µM		> 100 µM
C/C(CC(=O)Nc1ccc([N+](=O)[O-])cc1)=N\NC(N)=O	> 100 µM	> 100 µM	> 100 µM	> 100 µM	> 100 µM	> 100 µM	> 100 µM	> 100 µM	> 100 µM	> 100 µM	> 100 µM	> 100 µM	> 100 µM	> 100 µM	> 100 µM					
Cc1cc(=O)[nH]c(-n2[nH]c(C)c(CCO)c2=O)n1	> 100 µM	> 100 µM	> 100 µM	> 100 µM	> 100 µM	> 100 µM	> 100 µM	> 100 µM	> 100 µM	> 100 µM	> 100 µM	> 100 µM	> 100 µM	> 100 µM	> 100 µM	> 100 µM	> 100 µM	> 100 µM		> 100 µM
O=c1[nH]c2cc([N+](=O)[O-])ccc2nc1/C(=N/Nc1ccccc1)C(O)c1ccccc1Cl (stereo unspecified)	> 100 µM	> 100 µM	> 100 µM	> 100 µM	> 100 µM	> 100 µM	> 100 µM	> 100 µM	> 100 µM	> 100 µM	> 100 µM	> 100 µM	> 100 µM	> 100 µM	> 100 µM					
O=c1[nH]c2cc(Cl)ccc2nc1/C(=N\O)C(O)c1cccc([N+](=O)[O-])c1 (stereo unspecified)	> 100 µM	> 100 µM	> 100 µM	> 100 µM		> 100 µM	> 100 µM	> 100 µM	> 100 µM	> 100 µM	> 100 µM	> 100 µM	> 100 µM	> 100 µM	> 100 µM					
CC(=O)OC1COC(n2c(O)c(N=NC(N)=S)c3cc(Br)ccc32)C(OC(C)=O)C1OC(C)=O (stereo unspecified)	> 100 µM	> 100 µM	> 100 µM	> 100 µM	> 100 µM	> 100 µM	> 100 µM	> 100 µM	> 100 µM	> 100 µM	> 100 µM	> 100 µM	> 100 µM	> 100 µM	> 100 µM					
CCOC(=O)NC(=O)c1cn(CCOC(=O)CCCCCCCCC(=O)OCCn2cc(C(=O)NC(=O)OCC)c(=O)[nH]c2=O)c(=O)[nH]c1=O	> 100 µM	> 100 µM	> 100 µM	> 100 µM		> 100 µM	> 100 µM	> 100 µM	> 100 µM		> 100 µM	> 100 µM	> 100 µM	> 100 µM	> 100 µM					
C/C(=N\NS(=O)(=O)c1ccc(C)cc1)C(CN1CCCCC1)C(c1ccccc1)c1c(O)c2ccccc2oc1=O (stereo unspecified)	> 100 µM	> 100 µM	> 100 µM	> 100 µM	> 100 µM	> 100 µM	> 100 µM	> 100 µM	> 100 µM	> 100 µM	> 100 µM	> 100 µM		> 100 µM	> 100 µM					
C[N+](C)(C)CC(=O)N/N=C/c1oc(-c2c(O)ccc3ccccc23)c(-c2c(O)ccc3ccccc23)c1[N+](=O)[O-]	49.3 µM		81.5 µM	> 100 µM	47.8 µM	36.3 µM	33.3 µM	38.9 µM	38.5 µM	36.3 µM	24.7 µM	45 µM	49.2 µM	87.1 µM	18.6 µM					
O=C(c1cccs1)N(C(=S)N1CCN(c2ccccn2)CC1)c1ccccc1	> 100 µM	> 100 µM	> 100 µM	> 100 µM	> 100 µM	84.4 µM	> 100 µM	> 100 µM	> 100 µM	> 100 µM	> 100 µM		> 100 µM	> 100 µM	> 100 µM					
CCSc1[nH]c(NC(=S)NC(=O)c2ccccc2Cl)c(C(N)=O)c1C(N)=O		> 10 µM	> 10 µM	> 10 µM			> 10 µM	> 10 µM	> 10 µM	> 10 µM		> 10 µM	> 10 µM	> 10 µM	> 10 µM	> 10 µM	> 10 µM	> 10 µM		> 10 µM
